From patent US5773414A, “Endothelin antagonists” (Warner-Lambert Company, priority 1997, dated 1998)
Where a name gives a salt, the structure may show the parent alone. Read-outs that look alike come from different tables or passages of the source. Square brackets hold non-standard residues; d marks the D form. Peptide text beside a SMILES is read from it. dDip = N[C@@H](C(=O)O)C(c1ccccc1)c1ccccc1; d2Nal = N[C@H](Cc1ccc2ccccc2c1)C(=O)O; Orn = NCCC[C@H](N)C(=O)O

Tests used:
[1] = test system: ET-1 induced bronchoconstriction and tracheal smooth muscle contraction; settings: allergic sheep; cited from earlier work
[2] = test system: endotoxic shock; settings: mouse model of endotoxic shock; cited from earlier work
[3] = test system: pulmonary artery rings contracted by SRTX-6c; assay: In vitro isolated vessel study, pulmonary artery rings, agonist SRTX-6c; parameters: species or system rabbit; settings: Table III, endothelium-denuded rings
Experimental: In Vitro (Isolated Vessel) Studies
Male New Zealand rabbits were killed by cervical dislocation and exsanguination. Femoral and pulmonary arteries were isolated, cleaned of connective tissue, and cut into 4 mm rings. The endothelium was denuded by placing the rings over hypodermic tubing (32 gauge for femoral rings and 28 gauge for pulmonary rings, Small Parts Inc., Miami, Fla.) and gently rolling them. Denuded rings were mounted in 20 mL organ baths containing Krebs-bicarbonate buffer (composition in mM: NaCl, 118.2; NaHCO3, 24.8; KCl, 4.6; MgSO4, 7.H2 O, 1.2; KH2 PO4, 1.2; CaCl2. 2H2 O; Ca--Na2 EDTA, 0.026; Dextrose, 10.0), that was maintained at 37° C., and gassed continuously with 5% CO2 in oxygen (pH 7.4). Resting tension was adjusted to 3.0 g for femoral and 4.0 g pulmonary arteries; the rings were left for 90 minutes to equilibrate. Tension was monitored with force displacement transducers (Grass FT03, Quincy, Mass.) and recorded on a polygraph (Gould 2108, Cleveland, Ohio) recorder.
Vascular rings were tested for a lack of functional endothelium, i.e., lack of an endothelium-dependent relaxation response to carbachol (1.0 μM) in norepinephrine (0.03 μM) contracted rings. […]
For the in vitro experiments compounds were dissolved in 0.1% acetic acid in distilled water. […] The antagonist activity of various compounds are expressed as PA2 values in Table III.

[4] = target: T1, endothelin-stimulated inositol phosphate accumulation in Rat-1 cells (Rattus norvegicus, UniProt P26684); assay: Inositol Phosphate Accumulation; type: cell-based
T1 sequence (P26684 21-426): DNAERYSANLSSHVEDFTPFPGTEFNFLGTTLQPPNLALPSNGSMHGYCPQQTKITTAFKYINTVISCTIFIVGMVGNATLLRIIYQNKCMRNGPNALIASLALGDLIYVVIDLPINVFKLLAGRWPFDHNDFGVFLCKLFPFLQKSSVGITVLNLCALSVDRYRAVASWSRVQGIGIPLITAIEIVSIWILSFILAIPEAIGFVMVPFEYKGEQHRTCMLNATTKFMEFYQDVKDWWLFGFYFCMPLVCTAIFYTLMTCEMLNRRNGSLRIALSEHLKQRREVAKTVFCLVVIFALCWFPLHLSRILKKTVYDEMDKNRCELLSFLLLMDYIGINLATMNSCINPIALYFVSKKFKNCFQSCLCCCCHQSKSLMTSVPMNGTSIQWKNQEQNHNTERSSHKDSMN
Experimental: Inositol Phosphate Accumulation
The functional activity of compounds of Formula I is determined in Rat-1 cells by measuring intra-cellular levels of second messengers. […] Antagonist activity is assessed as the ability of added compounds to reduce endothelin-stimulated inositol phosphate accumulation.

[5] = target: T2, ETB (Rattus norvegicus, UniProt P21451); assay: Endothelin Receptor Binding Assay-B (ETB), [125I]-ET-1 binding in rat cerebellar membranes; settings: Table IIa; rat cerebellar membranes; read-out: Binding Assay IC50 at Receptor Subtypes ETB
T2 construct: thaw one aliquot of frozen rat cerebellar membranes; from tissue; host or cells: rat cerebellar membranes
T2 sequence (P21451 27-442): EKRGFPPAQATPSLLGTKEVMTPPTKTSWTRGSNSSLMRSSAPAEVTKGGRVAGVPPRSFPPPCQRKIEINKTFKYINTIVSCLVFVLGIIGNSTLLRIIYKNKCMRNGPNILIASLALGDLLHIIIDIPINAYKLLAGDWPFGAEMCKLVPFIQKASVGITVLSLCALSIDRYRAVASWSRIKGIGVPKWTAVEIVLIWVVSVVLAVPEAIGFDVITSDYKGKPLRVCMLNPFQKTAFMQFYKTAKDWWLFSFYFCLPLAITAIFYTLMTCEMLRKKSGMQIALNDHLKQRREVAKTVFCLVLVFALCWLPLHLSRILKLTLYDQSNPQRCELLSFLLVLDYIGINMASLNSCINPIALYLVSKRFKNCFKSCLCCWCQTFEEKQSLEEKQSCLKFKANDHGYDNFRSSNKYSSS
Experimental: The tissue is made up of 20 mM tris(hydroxymethyl)aminomethane hydrochloride (Trizma) buffer, 2 mM ethylenediaminetetraacetate, 100 μM phenylmethylsulfonyl fluoride.
First, thaw one aliquot of frozen rat cerebellar membranes (2 mg protein in 0.5 mL). Next, add 0.5 mL membrane aliquot to 4.5 mL cold tissue buffer, polytron at 7,500 revolutions per minute for 10 seconds. Finally, dilute tissue suspension 1/100 (0.1 mL suspension+9.9 mL tissue buffer), polytron again, and place ice.
Mix in 150 μL of tissue to each tube, vortex briefly, then tap to force all liquids to bottom (total assay volume=250 μL). Then place the tubes in a 37° C. water bath for 2 hours.
Add 2.5 mL cold water buffer (50 mM Trizma buffer) to each tube, filter, and then wash tube with additional 2.5 mL wash buffer and add to filter. Finally, wash filters with an additional 2.5 mL of cold wash buffer.
Count filters for radioactivity in gamma counter.

[6] = target: T3, ETA (Oryctolagus cuniculus, UniProt A5A8K3); assay: Endothelin Receptor Binding Assay-A (ETA), intact cell binding of [125I]-ET-1; parameters: species or system rabbit; settings: Table IIa; rabbit renal artery vascular smooth muscle cells; read-out: Binding Assay IC50 at Receptor Subtypes ETA
T3 construct: The cells used were rabbit renal artery vascular smooth muscle cells; endogenous in cells; host or cells: rabbit renal artery vascular smooth muscle cells
T3 sequence (A5A8K3 21-427): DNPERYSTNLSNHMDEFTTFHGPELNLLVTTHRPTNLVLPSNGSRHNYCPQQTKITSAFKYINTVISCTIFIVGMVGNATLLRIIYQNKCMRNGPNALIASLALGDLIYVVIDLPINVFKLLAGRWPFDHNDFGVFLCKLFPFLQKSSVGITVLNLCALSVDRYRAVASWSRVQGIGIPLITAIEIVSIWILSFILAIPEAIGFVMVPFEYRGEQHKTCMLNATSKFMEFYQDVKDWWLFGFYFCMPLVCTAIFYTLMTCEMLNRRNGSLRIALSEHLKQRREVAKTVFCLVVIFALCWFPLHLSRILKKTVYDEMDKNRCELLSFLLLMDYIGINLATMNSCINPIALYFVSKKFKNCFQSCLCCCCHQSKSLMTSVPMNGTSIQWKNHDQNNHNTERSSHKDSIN
Experimental: The cells used were rabbit renal artery vascular smooth muscle cells grown in a 48-well dish (1 cm^2) (confluent cells).
The growth media was Dulbeccos Modified Eagles/Ham's F12 which contained 10 fetal bovine serum and antibiotics (penicillin/streptomycin/fungizone).
Second, remove the assay buffers, place the dish on ice, and add 150 μL of cold assay buffer described above to each well. […] Next, place dish in a 37° C. water bath for about 2 hours and gently agitate the dish every 15 minutes. Discard the radioactive incubation mixture in the sink and wash wells 3 times with 1 mL of cold phosphate buffered saline. Last, add […] of 0.25M sodium hydroxide, agitate for 1 hour on rotator, and then transfer the sodium hydroxide extract to gamma counting tubes and count the radioactivity.

[7] = target: T4, endothelin receptor (rat heart ventricle) (Rattus norvegicus, UniProt P26684); assay: Rat Heart Ventricle Binding Assay ([125I]-ET-1); settings: Table II
T4 sequence (P26684 21-426): T1 sequence (P26684 21-426)
Experimental: Rat Heart Ventricle Binding Assay
IC50 values are calculated by weighing nonlinear regression curve-fitting to the mass-action (Langmuir) equation.

SMILES | IC50 [5] [µM] | IC50 [6] [µM] | inhibition at 10 µM [7] [%] | also measured
CC(C)C[C@@H]1NC(=O)[C@@H](C(C)C)NC(=O)[C@@H]2CCCN2C(=O)[C@@H](CC(=O)O)NC(=O)[C@@H](Cc2c[nH]c3ccccc23)NC1=O [BQ-123] (cyclo(L[dW][dD]P[dV])) |  |  |  | effect on ET-1 induced bronchoconstriction and tracheal smooth muscle contraction [1]: block ET-1 induced bronchoconstriction and tracheal smooth muscle contraction; survival rate [2]: significantly increased
CC[C@H](C)[C@H](NC(=O)[C@H](CC(=O)O)NC(=O)[C@H](CC(C)C)NC(=O)[C@H](NC(C)=O)C(c1ccccc1)c1ccccc1)C(=O)N[C@H](C(=O)N[C@@H](Cc1c[nH]c2ccccc12)C(=O)O)[C@@H](C)CC [Disodium salt of Ac-D-Dip-Leu-Asp-Ile-Ile-Trp] (Ac-[dDip]LDIIW-OH) |  |  |  | pA2, rabbit pulmonary artery [3]: 6.26
CC[C@H](C)[C@H](NC(=O)[C@H](CC(=O)O)NC(=O)[C@H](CC(C)C)NC(=O)[C@H](N)Cc1ccc2ccccc2c1)C(=O)N[C@H](C(=O)N[C@@H](Cc1c[nH]c2ccccc12)C(=O)O)[C@@H](C)CC [Example 4, D-2-Nal--Leu--Asp--Ile--Ile--Trp] (H-[d2Nal]LDIIW-OH; N-terminus and C-terminus assumed) |  |  |  | inhibition at 50 µM ([4]; Table II, read-out: IP (Inositol Phosphate) Accumulation, Inhibition): 53%; inhibition at 50 µM ([4]; Table IIa, read-out: IP (Inositol Phosphate) Accumulation, % Inhibition): 53%
CC[C@H](C)[C@H](NC(=O)[C@H](CC(=O)O)NC(=O)[C@@H](Cc1ccccc1)NC(C)=O)C(=O)N[C@H](C(=O)N[C@@H](Cc1c[nH]c2ccccc12)C(=O)O)[C@@H](C)CC [Example 11, Ac--D--Phe--Asp--Ile--Ile--Trp] (Ac-[dF]DIIW-OH) | 9.3 | 9.1 |  | inhibition at 10 µM ([4]; Table IIa, @ 10 μM, read-out: IP (Inositol Phosphate) Accumulation, % Inhibition): 30%
CC[C@H](C)[C@H](NC(=O)[C@H](CC(=O)O)NC(=O)[C@H](CC(C)C)NC(=O)[C@H](NC(C)=O)C(c1ccccc1)c1ccccc1)C(=O)N[C@@H](CCCCN)C(=O)N[C@@H](Cc1c[nH]c2ccccc12)C(=O)O [Example 17, Ac--D--Dip--Leu--Asp--Ile--Lys--Trp] (Ac-[dDip]LDIKW-OH) | 4.2 | > 10 | 24.6 | 
CC[C@H](C)[C@H](NC(=O)[C@H](CC(=O)O)NC(=O)[C@H](CC(C)C)NC(=O)[C@H](NC(C)=O)C(c1ccccc1)c1ccccc1)C(=O)N[C@@H](CCC(=O)O)C(=O)N[C@@H](Cc1c[nH]c2ccccc12)C(=O)O [Example 18, Ac--D--Dip--Leu--Asp--Ile--Glu--Trp] (Ac-[dDip]LDIEW-OH) |  |  | 37 | 
CC[C@H](C)[C@H](NC(=O)[C@H](CC(=O)O)NC(=O)[C@H](CCC(=O)O)NC(=O)[C@H](NC(C)=O)C(c1ccccc1)c1ccccc1)C(=O)N[C@H](C(=O)N[C@@H](Cc1c[nH]c2ccccc12)C(=O)O)[C@@H](C)CC [Example 20, Ac--D--Dip--Glu--Asp--Ile--Ile--Trp] (Ac-[dDip]EDIIW-OH) | 0.052 | 0.025 |  | pA2, rabbit pulmonary artery [3]: 6.85
CC[C@H](C)[C@H](NC(=O)[C@H](CC(=O)O)NC(=O)[C@H](CCCN)NC(=O)[C@H](NC(C)=O)C(c1ccccc1)c1ccccc1)C(=O)N[C@H](C(=O)N[C@@H](Cc1c[nH]c2ccccc12)C(=O)O)[C@@H](C)CC [Example 21, Ac--D--Dip--Orn--Asp--Ile--Ile--Trp] (Ac-[dDip][Orn]DIIW-OH) | 0.22 | 0.015 |  | inhibition at 0.05 µM ([7]; @ 0.05 μM): 79%
CC[C@H](C)[C@H](NC(=O)[C@H](CC(=O)O)NC(=O)[C@@H](CC(C)C)NC(=O)[C@H](NC(C)=O)C(c1ccccc1)c1ccccc1)C(=O)N[C@H](C(=O)N[C@@H](Cc1c[nH]c2ccccc12)C(=O)O)[C@@H](C)CC [Example 23, Ac--D--Dip--D--Leu--Asp--Ile--Ile--Trp] (Ac-[dDip][dL]DIIW-OH) |  |  | 41.3 | 
